# From ChEMBL document CHEMBL1152102, “6-Phenyl-6-alkylamido-5,6-dihydro-2H-pyran-2-ones: novel HIV protease inhibitors” (Bioorg Med Chem Lett, 1996)
# pIC50: −log10 of the molar value.
# Biological target: Human immunodeficiency virus type 1 protease (Human immunodeficiency virus 1, UniProt Q72874)
# Experiment: In vitro inhibitory activity against purified HIV-1 protease at a pH of 4.7 and a final enzyme concentration of 0.45-1.1 nM
row,Compound,pIC50
1,CC(C)c1ccccc1SC1=C(O)OC(CCCC(=O)N(C)Cc2ccccc2)(c2ccccc2)CC1=O (stereo not given),6.17
2,CC(C)c1ccccc1SC1=C(O)OC(CCCC(=O)Nc2ccccc2)(c2ccccc2)CC1=O (stereo not given),6.37
3,CC(C)c1ccccc1SC1=C(O)OC(CCCC(=O)NCc2ccccc2)(c2ccccc2)CC1=O (stereo not given),7.09
4,CC(C)c1ccccc1SC1=C(O)OC(CCCCC(=O)NCCc2ccccc2)(c2ccccc2)CC1=O (stereo not given),7.15
5,CC(C)c1ccccc1SC1=C(O)OC(CCCCC(=O)N2CCN(C(=O)OC(C)(C)C)CC2)(c2ccccc2)CC1=O (stereo not given),6.90
6,CC(C)c1ccccc1SC1=C(O)OC(CCCC(=O)NCCc2ccccc2)(c2ccccc2)CC1=O (stereo not given),6.84
7,CC(C)c1ccccc1SC1=C(O)OC(CCCCC(N)=O)(c2ccccc2)CC1=O (stereo not given),7.04
8,CCCCCC1(c2ccccc2)CC(=O)C(Sc2ccccc2C(C)C)=C(O)O1 (stereo not given),7.06
9,CC(C)c1ccccc1SC1=C(O)OC(CCCCC(=O)NCc2ccccc2)(c2ccccc2)CC1=O (stereo not given),7.59
10,CC(C)c1ccccc1SC1=C(O)OC(CCCCC(=O)O)(c2ccccc2)CC1=O (stereo not given),8.74
11,CC(C)c1ccccc1SC1=C(O)OC(CCCC(=O)N(C)CCc2ccccc2)(c2ccccc2)CC1=O (stereo not given),6.67
12,CC(C)c1ccccc1SC1=C(O)OC(CCC(=O)N2CCN(C(=O)OC(C)(C)C)CC2)(c2ccccc2)CC1=O (stereo not given),5.90
13,CC(C)c1ccccc1SC1=C(O)OC(CCCC(=O)N(C)c2ccccc2)(c2ccccc2)CC1=O (stereo not given),6.20
14,CC(C)c1ccccc1SC1=C(O)OC(CCCCC(=O)Nc2ccccc2)(c2ccccc2)CC1=O (stereo not given),7.04

# The remaining lines, values ahead:
row,pIC50,Compound
1,5.96,CC(C)c1ccccc1SC1=C(O)OC(CCC(=O)N2CCNCC2)(c2ccccc2)CC1=O (stereo not given)
2,6.71,CC(C)c1ccccc1SC1=C(O)OC(CCCCC(=O)N2CCOCC2)(c2ccccc2)CC1=O (stereo not given)
3,7.00,CC(C)c1ccccc1SC1=C(O)OC(CCCC(N)=O)(c2ccccc2)CC1=O (stereo not given)
4,6.55,CC(C)c1ccccc1SC1=C(O)OC(CCCC(=O)N2CCSCC2)(c2ccccc2)CC1=O (stereo not given)
5,6.23,CC(C)c1ccccc1SC1=C(O)OC(CCCCC(=O)N2CCSCC2)(c2ccccc2)CC1=O (stereo not given)
6,6.73,CC(C)c1ccccc1SC1=C(O)OC(CCCC(=O)N2CCOCC2)(c2ccccc2)CC1=O (stereo not given)
7,6.91,CC(C)c1ccccc1SC1=C(O)OC(CCCC(=O)N2CCN(C(=O)OC(C)(C)C)CC2)(c2ccccc2)CC1=O (stereo not given)
8,5.61,CC(C)c1ccccc1SC1=C(O)OC(CCC(=O)N2CCOCC2)(c2ccccc2)CC1=O (stereo not given)
9,6.25,CC(C)c1ccccc1SC1=C(O)OC(CCCC(=O)N2CCNCC2)(c2ccccc2)CC1=O (stereo not given)
10,6.63,CC(C)c1ccccc1SC1=C(O)OC(CCCCC(=O)N2CCNCC2)(c2ccccc2)CC1=O (stereo not given)
11,5.96,CC(C)c1ccccc1SC1=C(O)OC(CCC(=O)N2CCSCC2)(c2ccccc2)CC1=O (stereo not given)
